Patent publication US20070128217A1 (priority 2003, published 2007)

Legend:
[1] = test system: control sera (pooled serum of ten healthy LUMC hospital workers; commercial negative donor pooled serum from the Dutch bloodbank); type: binding, human; parameters: Binding of Control serum LUMC to linear peptides / Binding of Control serum Blood-bank to linear peptides / Binding of Control serum LUMC to looped peptides / Binding of Control Serum Blood-Bank to Looped peptides / Binding of Control serum LUMC to linear peptides of the protein M of SARS-CoV Urbani / Binding of Control serum Blood-bank to linear peptides of the protein M of SARS-CoV Urbani / Binding of Control serum LUMC to looped peptides of the protein M of SARS-CoV Urbani / Binding of Control Serum Blood-Bank to Looped peptides of the protein M of SARS-CoV Urbani: unit not given here
[2] = test system: rabbit serum obtained by immunizing a rabbit with the SARS-CoV strain Frankfurt 1; type: binding; parameters: Binding of a rabbit serum to linear peptides / Binding of a rabbit serum to looped peptides / Rabbit serum linear peptides / Rabbit serum looped peptides / Binding of a rabbit serum to linear peptides of protein N of SARS-CoV Urbani (Rabbit serum linear peptides) / Binding of a rabbit serum to looped/cyclic peptides of protein N of SARS-CoV Urbani (Rabbit serum looped peptides): unit not given here
[3] = test system: antibodies in sera from SARS patients (sera 1a, 1b, 2, 6, 37, 62, London, SARS-yellow, SARS-green); type: binding, human; parameters: Binding of serum 6 to linear peptides of protein X1 of SARS-CoV Urbani / Binding of serum 37 to linear peptides of protein X1 of SARS-CoV Urbani / Binding of serum 6 to looped/cyclic peptide (PEPSCAN-ELISA) / Binding of serum 37 to looped/cyclic peptide (PEPSCAN-ELISA) / Binding of serum 37 to looped/cyclic peptides of protein X1 of SARS-CoV Urbani / Binding of serum 6 to linear peptides of protein X2 / Binding of serum 37 to linear peptides of protein X2 / Binding of serum 37 to looped/cyclic peptides of protein X2 of SARS-CoV Urbani / Binding of serum 6 to linear peptides of protein M of SARS-CoV Urbani / Binding of serum 37 to linear peptides of protein M of SARS-CoV Urbani / Binding of serum 6 to looped/cyclic peptides of protein M of SARS-CoV Urbani / Binding of serum 37 to looped/cyclic peptides of protein M of SARS-CoV Urbani / Binding of serum 6 to linear peptides of protein X3 of SARS-CoV Urbani / Binding of serum 37 to linear peptides of protein X3 of SARS-CoV Urbani / Binding of serum 37 to looped/cyclic peptides of protein X3 of SARS-CoV Urbani / Binding of serum 6 to linear peptides of protein X4 of SARS-CoV Urbani / Binding of serum 37 to linear peptides of protein X4 of SARS-CoV Urbani / Binding of serum 37 to looped/cyclic peptides of protein X4 of SARS-CoV Urbani / Binding of serum 6 to linear peptides of protein X5 of SARS-CoV Urbani / Binding of serum 37 to linear peptides of protein X5 of SARS-CoV Urbani / Binding of serum 37 to looped/cyclic peptides of protein X5 of SARS-CoV Urbani / Binding of serum 6 to linear peptides of protein N of SARS-CoV Urbani / Binding of serum 37 to linear peptides of protein N of SARS-CoV Urbani / Binding of serum 6 to linear peptide (PEPSCAN-ELISA) / Binding of serum 1a to looped/cyclic peptides of protein N of SARS-CoV Urbani / Binding of serum 1b to looped/cyclic peptides of protein N of SARS-CoV Urbani / Binding of serum 2 to looped/cyclic peptides of protein N of SARS-CoV Urbani / Binding of serum 6 to looped/cyclic peptides of protein N of SARS-CoV Urbani / Binding of serum 37 to looped/cyclic peptides of protein N of SARS-CoV Urbani / Binding of serum 62 to looped/cyclic peptides of protein N of SARS-CoV Urbani / Binding of serum London to looped/cyclic peptides of protein N of SARS-CoV Urbani / Binding of serum SARS-green to looped/cyclic peptides of protein N of SARS-CoV Urbani: unit not given here
[4] = test system: recombinant human anti-SARS-CoV antibody 03-018; type: binding; parameters: Binding of antibody 03-018 to linear peptides of the N protein of SARS-CoV Urbani / Binding of antibody 03-018 to looped/cyclic peptides of the N protein of SARS-CoV Urbani: unit not given here

Sequence | Binding of a rabbit serum to linear peptides of protein N of SARS-CoV Urbani (Rabbit serum linear peptides) [2] | Binding of a rabbit serum to looped/cyclic peptides of protein N of SARS-CoV Urbani (Rabbit serum looped peptides) [2] | Binding of serum 1a to linear peptides of protein N of SARS-CoV Urbani [3] | Binding of serum 1a to looped/cyclic peptides of protein N of SARS-CoV Urbani [3] | Binding of serum 1b to linear peptides of protein N of SARS-CoV Urbani [3] | Binding of serum 1b to looped/cyclic peptides of protein N of SARS-CoV Urbani [3] | Binding of serum 2 to linear peptides of protein N of SARS-CoV Urbani [3] | Binding of serum 2 to looped/cyclic peptides of protein N of SARS-CoV Urbani [3] | Binding of serum 6 to linear peptides of protein N of SARS-CoV Urbani [3] | Binding of serum 6 to looped/cyclic peptides of protein N of SARS-CoV Urbani [3] | Binding of serum 37 to linear peptides of protein N of SARS-CoV Urbani [3] | Binding of serum 37 to looped/cyclic peptides of protein N of SARS-CoV Urbani [3] | Binding of serum 62 to linear peptides of protein N of SARS-CoV Urbani [3] | Binding of serum 62 to looped/cyclic peptides of protein N of SARS-CoV Urbani [3] | Binding of serum London to linear peptides of protein N of SARS-CoV Urbani [3] | Binding of serum London to looped/cyclic peptides of protein N of SARS-CoV Urbani [3] | Binding of serum SARS-green to linear peptides of protein N of SARS-CoV Urbani [3] | Binding of serum SARS-green to looped/cyclic peptides of protein N of SARS-CoV Urbani [3] | Binding of serum SARS-yellow to linear peptides of protein N of SARS-CoV Urbani [3] | Binding of serum SARS-yellow to looped/cyclic peptides of protein N of SARS-CoV Urbani [3] | also measured
PTDSTDNNQNGGRNG | 0.1 | 0.1 | 0.3 | 0.3 | 0.2 | 0.2 | 0.3 | 0.3 | 0.2 | 0.2 | 1.2 | 0.5 | 0.8 | 0.3 | 0.7 | 0.4 | 0.6 | 0.4 | 0.7 | 0.5 | Binding of Control Serum Blood-Bank to Looped peptides [1]: 0.5; Binding of Control serum Blood-bank to linear peptides [1]: 1.0; Binding of Control serum LUMC to linear peptides [1]: 0.8; Binding of Control serum LUMC to looped peptides [1]: 0.4; Binding of antibody 03-018 to linear peptides of the N protein of SARS-CoV Urbani [4]: 0.1; Binding of antibody 03-018 to looped/cyclic peptides of the N protein of SARS-CoV Urbani [4]: 0.2
PTEPKKDKKKKTDEA | 0.1 | 0.2 | 0.2 | 0.2 | 0.1 | 0.1 | 2.0 | 0.3 | 0.2 | 0.1 | 0.6 | 0.3 | 0.7 | 0.3 | 0.5 | 0.3 | 0.2 | 0.0 | 0.5 | 0.2 | Control Serum Blood-Bank Looped peptides [1]: 0.4; Control serum Blood-bank linear peptides [1]: 0.6; Control serum LUMC linear peptides [1]: 0.6; Control serum LUMC looped peptides [1]: 0.3; Binding of antibody 03-018 to linear peptides of the N protein of SARS-CoV Urbani [4]: 0.1; Binding of antibody 03-018 to looped/cyclic peptides of the N protein of SARS-CoV Urbani [4]: 0.2
PTVTLLPAADMDDFS | 0.1 | 0.0 | 0.3 | 0.2 | 0.2 | 0.2 | 0.2 | 0.3 | 0.1 | 0.1 | 1.4 | 0.4 | 0.9 | 0.2 | 0.6 | 0.2 | 1.9 | 0.7 | 0.7 | 0.1 | Control Serum Blood-Bank Looped peptides [1]: 0.3; Control serum Blood-bank linear peptides [1]: 0.8; Control serum LUMC linear peptides [1]: 0.7; Control serum LUMC looped peptides [1]: 0.3; Binding of antibody 03-018 to linear peptides of the N protein of SARS-CoV Urbani [4]: 0.1; Binding of antibody 03-018 to looped/cyclic peptides of the N protein of SARS-CoV Urbani [4]: 0.2
